# Source: PubChem BioAssay (NCI)
#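 48-hour exposure; five concentrations; linearly interpolated endpoints. The concentration for full growth arrest is given as TGI.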
# Assays:
# Experiment in all cases: NCI tumour cell line growth inhibition, 48 h
# [1] = test system: OVCAR-4 ovarian
# [2] = test system: COLO 205 colon
# [3] = test system: SK-MEL-2 melanoma
# [4] = test system: DU-145 prostate
# [5] = test system: HOP-92 NSCLC
# [6] = test system: CAKI-1 renal
# [7] = test system: NCI-H460 lung
# [8] = test system: BT-549 breast
# [9] = test system: OVCAR-8 ovarian
# [10] = test system: HCC-2998 colon
# [11] = test system: MOLT-4 leukemia
# [12] = test system: SW-620 colon
# [13] = test system: TK-10 renal
# [14] = test system: IGROV1 ovarian
# [15] = test system: SN12C renal
# [16] = test system: HOP-62 NSCLC
# [17] = test system: SNB-19 CNS
# [18] = test system: UACC-62 melanoma
# [19] = test system: RXF 393 renal
# [20] = test system: MDA-N
# [21] = test system: HCT-15 colon
# [22] = test system: HCT-116 colon
# [23] = test system: SNB-75 CNS
# [24] = test system: T-47D breast
# [25] = test system: 786-0 renal
# [26] = test system: HS 578T breast
# [27] = test system: NCI-H23 lung
# [28] = test system: SF-539 CNS
# [29] = test system: LOX IMVI melanoma
# [30] = test system: MDA-MB-231 breast
# [31] = test system: MALME-3M melanoma
# [32] = test system: NCI-H226 lung
# [33] = test system: MCF7 breast
# [34] = test system: RPMI-8226 leukemia
# [35] = test system: KM12 colon
# [36] = test system: NCI-H522 lung
# [37] = test system: SK-OV-3 ovarian
# [38] = test system: CCRF-CEM leukemia
# [39] = test system: SK-MEL-28 melanoma
# [40] = test system: ACHN renal
# [41] = test system: U251 CNS
# [42] = test system: EKVX NSCLC
# [43] = test system: M14 melanoma
# [44] = test system: SF-268 CNS
# [45] = test system: MDA-MB-435
# [46] = test system: NCI/ADR-RES ovarian
# [47] = test system: K-562 leukemia
# [48] = test system: UO-31 renal
# [49] = test system: SF-295 CNS
# [50] = test system: OVCAR-3 ovarian
# [51] = test system: SK-MEL-5 melanoma
# [52] = test system: PC-3 prostate
# [53] = test system: HL-60(TB) leukemia
# [54] = test system: A549 NSCLC
# [55] = test system: HT29 colon
# [56] = test system: UACC-257 melanoma
# [57] = test system: A498 renal
# [58] = test system: OVCAR-5 ovarian
# [59] = test system: SR leukemia
smiles,measurement,setting,value
CC(C)C1/C(=N/O)CC(c2ccccc2)N(N=O)C1c1ccccc1 (centres undefined),TGI,[1],> 100 µM
same,TGI,[2],31 µM
same,TGI,[3],73.6 µM
same,TGI,[4],> 100 µM
same,TGI,[5],78.6 µM
same,TGI,[6],89.7 µM
same,TGI,[7],67.5 µM
same,TGI,[8],> 100 µM
same,TGI,[9],> 100 µM
same,TGI,[10],> 100 µM
same,TGI,[11],95.6 µM
same,TGI,[12],> 100 µM
same,TGI,[13],> 100 µM
same,TGI,[14],> 100 µM
same,TGI,[15],> 100 µM
same,TGI,[16],> 100 µM
same,TGI,[17],> 100 µM
same,TGI,[18],45.3 µM
same,TGI,[19],> 100 µM
same,TGI,[20],> 100 µM
same,TGI,[21],> 100 µM
same,TGI,[22],85.7 µM
same,TGI,[23],> 100 µM
same,TGI,[24],96.2 µM
same,TGI,[25],> 100 µM
same,TGI,[26],> 100 µM
same,TGI,[27],> 100 µM
same,TGI,[28],> 100 µM
same,TGI,[29],> 100 µM
same,TGI,[30],> 100 µM
same,TGI,[31],61.9 µM
same,TGI,[32],> 100 µM
same,TGI,[33],> 100 µM
same,TGI,[34],> 100 µM
same,TGI,[35],> 100 µM
same,TGI,[36],> 100 µM
same,TGI,[37],> 100 µM
same,TGI,[38],> 100 µM
same,TGI,[39],> 100 µM
same,TGI,[40],> 100 µM
same,TGI,[41],> 100 µM
same,TGI,[42],73.5 µM
same,TGI,[43],> 100 µM
same,TGI,[44],> 100 µM
same,TGI,[45],72.4 µM
same,TGI,[46],> 100 µM
same,TGI,[47],> 100 µM
same,TGI,[48],82.9 µM
same,TGI,[49],> 100 µM
same,TGI,[50],> 100 µM
same,TGI,[51],95.9 µM
same,TGI,[52],> 100 µM
same,TGI,[53],86.7 µM
same,TGI,[54],> 100 µM
same,TGI,[55],39 µM
same,TGI,[56],> 100 µM
CCC1(O)CC2CC(=O)OC2C1O (centres undefined),TGI,[1],> 100 µM
same,TGI,[2],> 100 µM
same,TGI,[3],> 100 µM
same,TGI,[4],> 100 µM
same,TGI,[5],> 100 µM
same,TGI,[6],> 100 µM
same,TGI,[7],> 100 µM
same,TGI,[9],> 100 µM
same,TGI,[10],> 100 µM
same,TGI,[11],> 100 µM
same,TGI,[12],> 100 µM
same,TGI,[13],> 100 µM
same,TGI,[14],> 100 µM
same,TGI,[16],> 100 µM
same,TGI,[57],> 100 µM
same,TGI,[17],> 100 µM
same,TGI,[18],> 100 µM
same,TGI,[19],> 100 µM
same,TGI,[20],> 100 µM
same,TGI,[21],> 100 µM
same,TGI,[23],> 100 µM
same,TGI,[24],> 100 µM
same,TGI,[25],> 100 µM
same,TGI,[26],> 100 µM
same,TGI,[27],> 100 µM
same,TGI,[28],> 100 µM
same,TGI,[29],> 100 µM
same,TGI,[30],> 100 µM
same,TGI,[31],> 100 µM
same,TGI,[32],> 100 µM
same,TGI,[33],> 100 µM
same,TGI,[34],> 100 µM
same,TGI,[35],> 100 µM
same,TGI,[36],> 100 µM
same,TGI,[58],> 100 µM
same,TGI,[37],> 100 µM
same,TGI,[38],25.7 µM
same,TGI,[39],> 100 µM
same,TGI,[40],> 100 µM
same,TGI,[41],> 100 µM
same,TGI,[42],> 100 µM
same,TGI,[43],> 100 µM
same,TGI,[44],> 100 µM
same,TGI,[45],> 100 µM
same,TGI,[46],> 100 µM
same,TGI,[47],> 100 µM
same,TGI,[48],> 100 µM
same,TGI,[49],> 100 µM
same,TGI,[50],> 100 µM
same,TGI,[51],> 100 µM
same,TGI,[52],> 100 µM
same,TGI,[54],> 100 µM
same,TGI,[59],> 100 µM
same,TGI,[55],> 100 µM
same,TGI,[56],> 100 µM
Cc1nc(C(N)=S)sc1/C(CC(=O)C(=O)Nc1cccc2ccc(O)cc12)=N\NC(=O)c1ccncc1,TGI,[1],> 100 µM
same,TGI,[2],> 100 µM
same,TGI,[3],> 100 µM
same,TGI,[4],> 100 µM
same,TGI,[5],> 100 µM
same,TGI,[6],> 100 µM
same,TGI,[7],64.6 µM
same,TGI,[8],> 100 µM
same,TGI,[9],> 100 µM
same,TGI,[10],> 100 µM
same,TGI,[11],74.3 µM
same,TGI,[12],> 100 µM
same,TGI,[13],> 100 µM
same,TGI,[14],> 100 µM
same,TGI,[15],> 100 µM
same,TGI,[16],> 100 µM
same,TGI,[17],> 100 µM
same,TGI,[18],> 100 µM
same,TGI,[19],> 100 µM
same,TGI,[20],> 100 µM
same,TGI,[21],> 100 µM
same,TGI,[22],> 100 µM
same,TGI,[23],> 100 µM
same,TGI,[25],> 100 µM
same,TGI,[26],> 100 µM
same,TGI,[27],> 100 µM
same,TGI,[28],> 100 µM
same,TGI,[29],> 100 µM
same,TGI,[30],> 100 µM
same,TGI,[32],> 100 µM
same,TGI,[33],> 100 µM
same,TGI,[35],> 100 µM
same,TGI,[36],> 100 µM
same,TGI,[58],> 100 µM
same,TGI,[37],> 100 µM
same,TGI,[38],> 100 µM
same,TGI,[39],> 100 µM
same,TGI,[40],> 100 µM
same,TGI,[41],> 100 µM
same,TGI,[42],> 100 µM
same,TGI,[43],> 100 µM
same,TGI,[44],> 100 µM
same,TGI,[45],> 100 µM
same,TGI,[46],> 100 µM
same,TGI,[48],> 100 µM
same,TGI,[49],> 100 µM
same,TGI,[50],> 100 µM
same,TGI,[51],> 100 µM
same,TGI,[52],> 100 µM
same,TGI,[53],> 100 µM
same,TGI,[54],> 100 µM
same,TGI,[55],> 100 µM
same,TGI,[56],> 100 µM
